Laboratory results: patent US20030211605A1, “Derivation of midbrain dopaminergic neurons from embryonic stem cells” (priority 2003, published 2003)

Key:
Type in all cases: cell-based, mouse
ES cells [1] = assay: Comparison of N2 and N3FL media: total, TUJ1+ and TH+ cells after differentiation; conditions: for phenotype of the ES cell derived population: variation of concentration in the medium
ES-derived neuron = assay: Patch clamp recording of synaptic activity of differentiated ES-derived neurons; conditions: 10 mM, pressure application; 13 days of differentiation; FIG. 9B/9C
ES cells [2] = assay: Yield of TH+ neurons (TH/TUJ1 immunocytochemistry) in differentiated ES cell cultures; conditions: SHH 500 ng/ml, FGF8 100 ng/ml, cAMP 1 mM, ascorbic acid 200 μM, added at different stages; FIG. 4
Method: Specifically, the cells were dissociated by adding a solution of 0.05% typsin and 0.04% EDTA to the plates and incubating at 37° C. for 5 minutes. The dissociated cells were plated on tissue culture plastic or glass coverslips at a concentration of 1.5-2×10^6 cm^2 in serum free N2 medium supplemented with 1 μg/ml of laminin and 10 ng/ml of basic fibroblast growth factor (bFGF, R&D Systems, Minneapolis, Minn.). The medium was also supplemented with murine aminoterminal fragment SHH (500 ng/ml); murine FGF8 isoform b (100 ng/ml, both from R& D System); and ascorbic acid (200 μM, Sigma). Control cultures were treated identically except that no SHH or FGF8 was applied during cell proliferation.
Differentiation (stage 5) was induced using a modification of Okabe et al., using N2 medium instead of N3FL medium. […]
Uniform random sampling procedure were used for cell counts and quantified using the fractionator technique (Gundersen et al., (1988) “Some new, simple and efficient stereological methods and their use in pathological research and diagnosis,” APIMS 96:379-394). […] Data expressed as mean±SEM.
Yield of TH+ neurons is expressed as a percentage of all TUJ1+ neurons.

Molecule | phenotype of the ES cell derived population (ES cells [1]) | response to application to the dendrites of a differentiated neuron (ES-derived neuron) | other results
NC(=O)CC[C@H](N)C(=O)O [glutamine] | did not significantly affect |  | 
O=S(=O)(O)CCN1CCN(CCO)CC1 [HEPES, 4-(2-hydroxyethyl)-1-piperazine-ethanesulfonic acid] |  |  | percentage of TUJ1 and TH+ cells (ES cells [1]; substitution of bicarbonate (N2) by HEPES (N3FL), FIG. 8): dramatically reduced
NCCCC(=O)O [GABA, gamma amino butyric acid] |  | inward current | 
N[C@@H](CCC(=O)O)C(=O)O [glutamate] |  | inward current | 
O=C1O[C@H]([C@@H](O)CO)C(O)=C1O [ascorbic acid] |  |  | yield of TH+ neurons (percentage of all TUJ1+ neurons) (ES cells [2]): increase the yield of TH+ neurons
transferrin | did not significantly affect |  | 
